# Calls of active or inactive are those of the source.
# Assays:
# [1] = molecular target: Cytochrome P450 2D6 (Homo sapiens, UniProt P10635);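 note: CYP2D6 member of a cytochrome P450 panel assay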
# [2] = THP-1 cell cytotoxicity, dose response, cytotoxicity control for Vif-APOBEC3G degradation inhibitor project, THP-1 cells (AID 1117359); format: functional; conditions: Human immunodeficiency virus 1, THP-1
# [3] = molecular target: T1, Cytochrome P450 3A4 (Homo sapiens, UniProt P08684); conditions: Potency
# [4] = system: HeLa; assay: HeLa cell cytotoxicity, dose response, cytotoxicity control, 24 h, cherry-picked samples (AID 504726); format: functional, cell-based; conditions: Homo sapiens;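 note: potency for cytotoxicity as loss of luminescence signal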
# [5] = molecular target: T2, fMet-Leu-Phe receptor (Homo sapiens, UniProt P21462); assay: FPR ligands, dose response (AID 519); format: functional
# T2 sequence (P21462 whole entry): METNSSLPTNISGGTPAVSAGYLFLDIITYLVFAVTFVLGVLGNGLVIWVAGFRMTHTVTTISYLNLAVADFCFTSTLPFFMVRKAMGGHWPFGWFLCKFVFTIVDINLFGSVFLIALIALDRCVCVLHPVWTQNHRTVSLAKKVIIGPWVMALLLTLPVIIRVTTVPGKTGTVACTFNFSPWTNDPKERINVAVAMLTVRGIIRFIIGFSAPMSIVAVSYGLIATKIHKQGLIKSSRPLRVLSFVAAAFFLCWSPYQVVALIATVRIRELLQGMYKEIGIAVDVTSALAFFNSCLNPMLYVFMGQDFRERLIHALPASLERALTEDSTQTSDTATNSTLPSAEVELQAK
# [6] = molecular target: T3, Heat shock factor protein 1 (Mus musculus, UniProt P38532); assay: inhibition of MG132-induced HSE-luciferase signal, confirmation, cell-based, NIH3T3, luminescence, dose retest (AID 2382); format: functional;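 note: NIH3T3 fibroblasts with HSF1-driven luciferase reporter stressed by proteasome inhibitor MG132; luminescence from HSF1-driven luciferase expression after 8 hours of MG132 stress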
# T3 sequence (P38532 whole entry): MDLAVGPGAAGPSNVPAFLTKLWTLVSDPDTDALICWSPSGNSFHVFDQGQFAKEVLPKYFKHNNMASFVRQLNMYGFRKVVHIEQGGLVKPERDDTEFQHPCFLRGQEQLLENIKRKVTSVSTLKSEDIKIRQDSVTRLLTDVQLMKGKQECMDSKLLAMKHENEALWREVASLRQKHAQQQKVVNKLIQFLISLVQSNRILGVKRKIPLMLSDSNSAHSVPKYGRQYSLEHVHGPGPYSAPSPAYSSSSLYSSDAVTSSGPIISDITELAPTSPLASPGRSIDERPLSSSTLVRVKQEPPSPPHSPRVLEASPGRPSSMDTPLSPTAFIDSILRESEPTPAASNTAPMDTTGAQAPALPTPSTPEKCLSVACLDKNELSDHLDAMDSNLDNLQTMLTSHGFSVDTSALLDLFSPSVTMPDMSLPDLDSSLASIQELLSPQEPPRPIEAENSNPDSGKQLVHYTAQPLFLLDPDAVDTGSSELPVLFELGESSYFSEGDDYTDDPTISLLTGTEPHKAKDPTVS
# [7] = A549 cell cytotoxicity, dose response, cytotoxicity control, plate reader, cherry-pick, antagonist series (AID 743412); format: functional, cell-based
# [8] = Luminescence Cell-Based Dose Confirmation HTS to Identify Inhibitors of Platelet Dense Granule Release. [Related pubchem assays: 1663 (Primary HTS), 1678 (Summary of Project)]; format: functional
# [9] = MC4R antagonists, dose response, counter-screen for LGR2 antagonist project, cell-based, plate reader, cherry pick (AID 743444); format: functional;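 note: transfected HEK 293 cells stimulated with alpha-MSH peptide; potency of inhibitors of the alpha-MSH evoked signal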
# [10] = inhibitors of SNCA 5'UTR-driven reporter translation, confirmation, H4 neuroglioma cells, luminescence (AID 1988); format: functional, cell-based
# [11] = Luminescence Cell-Based Dose Response HTS to Identify Inhibitors of 5'UTR Stem-Loop Driven Prion Protein mRNA Translation in H4 Neuroglioblastoma Cells. [Related pubchem assays: 1827 (Project Summary), 1813 (Primary HTS)]; format: functional
# [12] = HEK293 cell cytotoxicity, dose response, cytotoxicity control, plate reader, cherry-picked samples (AID 743446); format: functional, cell-based
# [13] = LGR2 antagonists, dose response, cell-based, HEK293, CRE-luciferase reporter, cherry pick, set 2 (AID 743343); format: functional;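 note: transfected cells were stimulated with diluted bursicon conditioned medium after compound addition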
# [14] = molecular target: Luciferin 4-monooxygenase (Photinus pyralis, UniProt P08659); assay: firefly luciferase enzyme inhibitors, dose response, biochemical, luminescence (AID 1891)
# [15] = inhibitors of firefly luciferase expression or activity, dose response, H4 neuroglioma cells, luminescence (AID 1990); format: functional, cell-based
# [16] = system: Streptococcus; assay: Group A Streptococcus viability loss, dose response, counter-screen for streptokinase expression inhibitor project, luminescence, BacTiterGlo (AID 1915); format: functional, organism-based;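 note: potency for reduction of bacterial viability or growth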
# [17] = molecular target: T4, Streptokinase A (Streptococcus pyogenes serotype M1, UniProt P10520); assay: S. pyogenes streptokinase expression inhibitors, potency, dose response, plasminogen activation absorbance, OD405 (AID 1914); format: functional, Streptococcus pyogenes M1 GAS;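 note: secreted streptokinase activity via plasminogen activation per viability signal from cell pellet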
# T4 sequence (P10520 whole entry): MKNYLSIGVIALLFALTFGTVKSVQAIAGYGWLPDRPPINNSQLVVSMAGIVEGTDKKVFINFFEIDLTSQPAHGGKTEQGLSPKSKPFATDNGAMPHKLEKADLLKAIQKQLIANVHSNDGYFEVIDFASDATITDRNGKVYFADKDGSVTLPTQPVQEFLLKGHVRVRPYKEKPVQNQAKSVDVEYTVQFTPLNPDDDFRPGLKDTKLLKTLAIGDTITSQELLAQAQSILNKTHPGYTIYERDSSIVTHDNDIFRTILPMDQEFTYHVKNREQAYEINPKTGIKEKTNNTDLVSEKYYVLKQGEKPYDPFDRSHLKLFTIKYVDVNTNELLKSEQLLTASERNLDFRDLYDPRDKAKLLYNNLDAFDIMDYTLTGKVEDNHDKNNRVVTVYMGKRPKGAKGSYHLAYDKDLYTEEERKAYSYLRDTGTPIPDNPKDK
# [18] = system: Streptococcus sp. 'group A'; assay: growth inhibition of control SK(-) GAS strain, dose response, counter-screen for streptokinase expression inhibitor project, luminescence, kanamycin, BacTiterGlo, confirmation (AID 1900); format: functional, organism-based
# [19] = molecular target: T5, Short transient receptor potential channel 4 (Mus musculus, UniProt Q9QUQ5); assay: mouse TRPC4 channel inhibitors, dose response, cell-based, HEK293 TRPC4/mu-opioid, Fluo-4 calcium (AID 434942); format: functional;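 note: potency of inhibitors blocking the TRPC4 calcium response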
# T5 sequence (Q9QUQ5 whole entry): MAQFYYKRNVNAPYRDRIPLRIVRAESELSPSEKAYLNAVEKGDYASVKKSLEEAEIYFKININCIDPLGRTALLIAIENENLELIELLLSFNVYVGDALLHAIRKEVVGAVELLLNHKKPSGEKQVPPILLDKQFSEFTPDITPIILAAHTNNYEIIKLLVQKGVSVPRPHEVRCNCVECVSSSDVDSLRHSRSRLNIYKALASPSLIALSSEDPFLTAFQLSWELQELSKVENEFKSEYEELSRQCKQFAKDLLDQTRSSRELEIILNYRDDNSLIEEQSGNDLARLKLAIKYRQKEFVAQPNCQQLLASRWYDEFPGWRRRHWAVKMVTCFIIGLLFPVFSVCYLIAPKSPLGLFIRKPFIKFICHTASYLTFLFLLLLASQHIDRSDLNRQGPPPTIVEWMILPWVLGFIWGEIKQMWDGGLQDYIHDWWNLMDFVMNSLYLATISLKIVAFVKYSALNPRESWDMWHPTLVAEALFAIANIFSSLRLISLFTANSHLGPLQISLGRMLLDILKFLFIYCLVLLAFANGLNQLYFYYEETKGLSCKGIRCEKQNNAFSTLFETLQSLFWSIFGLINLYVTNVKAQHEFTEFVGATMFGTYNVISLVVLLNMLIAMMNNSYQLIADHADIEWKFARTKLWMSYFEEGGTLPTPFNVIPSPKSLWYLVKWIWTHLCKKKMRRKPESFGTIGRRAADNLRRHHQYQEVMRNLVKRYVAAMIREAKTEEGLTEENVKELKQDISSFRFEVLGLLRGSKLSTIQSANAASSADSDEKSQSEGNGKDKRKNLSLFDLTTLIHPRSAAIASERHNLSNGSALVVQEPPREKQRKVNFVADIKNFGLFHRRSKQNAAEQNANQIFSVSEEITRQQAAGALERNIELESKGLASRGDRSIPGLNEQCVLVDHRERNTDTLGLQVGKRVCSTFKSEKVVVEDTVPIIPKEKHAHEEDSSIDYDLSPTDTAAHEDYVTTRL
# [20] = molecular target: T6, X-box-binding protein 1 (Homo sapiens, UniProt P17861); format: functional, Cricetulus griseus;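 note: confirmatory dose-response counter-screen serving a CHOP assay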
# T6 sequence (P17861 whole entry): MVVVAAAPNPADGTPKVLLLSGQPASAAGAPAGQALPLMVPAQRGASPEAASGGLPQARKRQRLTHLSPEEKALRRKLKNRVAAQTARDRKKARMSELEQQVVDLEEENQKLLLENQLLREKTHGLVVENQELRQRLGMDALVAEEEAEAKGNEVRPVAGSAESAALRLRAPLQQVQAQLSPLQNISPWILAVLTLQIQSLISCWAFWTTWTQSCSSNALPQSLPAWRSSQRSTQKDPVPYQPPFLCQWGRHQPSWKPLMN
# [21] = molecular target: T1, Cytochrome P450 3A4
# [22] = HepG2 cell cytotoxicity, dose response, cytotoxicity control, plate reader, cherry-pick, antagonist series (AID 743416); format: functional, cell-based
# [23] = THP-1 cell cytotoxicity, dose response, cytotoxicity control for non-replicating M. tuberculosis project (AID 489025); format: functional
# [24] = cells; format: functional
# [25] = A cytotoxicity screen of small molecule inhibitors of the PhoP region in Salmonella typhi identified in the primary screen. [Related pubchem assays: 1850, 1864, 1985 ]; format: functional
# [26] = molecular target: DNA dC->dU-editing enzyme APOBEC-3G (Homo sapiens, UniProt Q9HC16); assay: Dose Response confirmation of small molecule APOBEC3G DNA Deaminase Inhibitors via a fluorescence-based single-stranded DNA deaminase assay. [Related pubchem assays (depositor defined):AID493012, AID493028]; format: functional
# [27] = molecular target: DNA dC->dU-editing enzyme APOBEC-3A (Homo sapiens, UniProt P31941); assay: APOBEC3A DNA deaminase inhibitors, dose response, biochemical (AID 504722); format: functional
# [28] = molecular target: Large T antigen (Simian virus 40, UniProt P03070); format: functional, Betapolyomavirus macacae;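 note: Confirmatory-stage PubChem screen for compounds that inhibit SV40 T antigen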
# [29] = molecular target: FAD-linked sulfhydryl oxidase ALR (Homo sapiens, UniProt P55789); assay: inhibitors of human ALR sulfhydryl oxidase, dose response, biochemical, H2O2 detection, luminescence, cherry-pick (AID 493248)
# Sequence of FAD-linked sulfhydryl oxidase ALR (P55789 whole entry): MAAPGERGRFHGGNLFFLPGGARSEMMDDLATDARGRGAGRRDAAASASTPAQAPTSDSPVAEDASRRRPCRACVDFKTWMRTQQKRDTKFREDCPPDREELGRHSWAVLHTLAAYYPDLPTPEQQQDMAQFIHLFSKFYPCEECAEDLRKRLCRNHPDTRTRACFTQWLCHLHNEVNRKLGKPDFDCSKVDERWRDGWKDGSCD
# T1 sequence (P08684 whole entry): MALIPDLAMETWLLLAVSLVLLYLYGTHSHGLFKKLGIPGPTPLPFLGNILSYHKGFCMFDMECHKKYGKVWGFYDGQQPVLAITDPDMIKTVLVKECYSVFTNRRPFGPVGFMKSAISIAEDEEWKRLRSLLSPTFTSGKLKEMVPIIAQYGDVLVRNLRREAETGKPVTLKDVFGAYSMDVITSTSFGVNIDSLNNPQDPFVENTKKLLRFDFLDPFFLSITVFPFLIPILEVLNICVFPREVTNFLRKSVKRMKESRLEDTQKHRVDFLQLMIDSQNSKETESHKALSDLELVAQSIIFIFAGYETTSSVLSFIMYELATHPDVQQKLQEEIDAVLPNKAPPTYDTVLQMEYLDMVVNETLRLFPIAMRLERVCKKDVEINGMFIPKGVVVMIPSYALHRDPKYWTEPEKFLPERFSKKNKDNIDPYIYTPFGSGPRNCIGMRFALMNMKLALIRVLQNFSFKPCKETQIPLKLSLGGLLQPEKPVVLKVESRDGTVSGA
# Sequence of DNA dC->dU-editing enzyme APOBEC-3G (Q9HC16 whole entry): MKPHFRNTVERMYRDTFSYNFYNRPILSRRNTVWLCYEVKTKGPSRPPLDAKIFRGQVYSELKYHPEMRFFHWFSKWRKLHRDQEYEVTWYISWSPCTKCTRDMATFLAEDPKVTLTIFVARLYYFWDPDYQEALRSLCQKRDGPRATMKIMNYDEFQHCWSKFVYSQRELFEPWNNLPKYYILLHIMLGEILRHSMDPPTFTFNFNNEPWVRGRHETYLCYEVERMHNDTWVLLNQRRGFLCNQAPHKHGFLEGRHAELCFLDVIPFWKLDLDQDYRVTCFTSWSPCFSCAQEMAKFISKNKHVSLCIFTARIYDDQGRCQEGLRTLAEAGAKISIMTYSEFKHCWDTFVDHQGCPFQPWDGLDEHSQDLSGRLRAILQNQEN
# Sequence of DNA dC->dU-editing enzyme APOBEC-3A (P31941 whole entry): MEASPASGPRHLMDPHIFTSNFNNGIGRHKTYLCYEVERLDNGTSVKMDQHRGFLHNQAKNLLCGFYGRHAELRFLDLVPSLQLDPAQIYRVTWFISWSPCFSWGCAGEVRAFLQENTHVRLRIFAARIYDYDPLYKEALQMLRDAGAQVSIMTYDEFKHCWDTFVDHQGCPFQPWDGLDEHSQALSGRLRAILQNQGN
# Sequence of Luciferin 4-monooxygenase (P08659 whole entry): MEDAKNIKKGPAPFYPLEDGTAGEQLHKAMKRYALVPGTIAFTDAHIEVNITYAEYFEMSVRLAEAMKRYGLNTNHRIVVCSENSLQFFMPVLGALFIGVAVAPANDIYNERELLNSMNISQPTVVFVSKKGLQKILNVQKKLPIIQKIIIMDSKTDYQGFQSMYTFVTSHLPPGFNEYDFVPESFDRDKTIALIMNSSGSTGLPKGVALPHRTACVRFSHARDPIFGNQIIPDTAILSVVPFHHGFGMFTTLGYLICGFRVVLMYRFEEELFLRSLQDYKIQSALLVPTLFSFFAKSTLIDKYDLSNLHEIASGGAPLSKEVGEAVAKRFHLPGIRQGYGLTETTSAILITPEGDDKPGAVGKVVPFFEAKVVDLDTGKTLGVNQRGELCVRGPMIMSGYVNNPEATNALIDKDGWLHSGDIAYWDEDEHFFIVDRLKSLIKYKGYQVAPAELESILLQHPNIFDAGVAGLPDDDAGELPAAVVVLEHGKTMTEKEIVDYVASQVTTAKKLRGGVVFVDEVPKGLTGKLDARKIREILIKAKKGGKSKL
# Sequence of Large T antigen (P03070 whole entry): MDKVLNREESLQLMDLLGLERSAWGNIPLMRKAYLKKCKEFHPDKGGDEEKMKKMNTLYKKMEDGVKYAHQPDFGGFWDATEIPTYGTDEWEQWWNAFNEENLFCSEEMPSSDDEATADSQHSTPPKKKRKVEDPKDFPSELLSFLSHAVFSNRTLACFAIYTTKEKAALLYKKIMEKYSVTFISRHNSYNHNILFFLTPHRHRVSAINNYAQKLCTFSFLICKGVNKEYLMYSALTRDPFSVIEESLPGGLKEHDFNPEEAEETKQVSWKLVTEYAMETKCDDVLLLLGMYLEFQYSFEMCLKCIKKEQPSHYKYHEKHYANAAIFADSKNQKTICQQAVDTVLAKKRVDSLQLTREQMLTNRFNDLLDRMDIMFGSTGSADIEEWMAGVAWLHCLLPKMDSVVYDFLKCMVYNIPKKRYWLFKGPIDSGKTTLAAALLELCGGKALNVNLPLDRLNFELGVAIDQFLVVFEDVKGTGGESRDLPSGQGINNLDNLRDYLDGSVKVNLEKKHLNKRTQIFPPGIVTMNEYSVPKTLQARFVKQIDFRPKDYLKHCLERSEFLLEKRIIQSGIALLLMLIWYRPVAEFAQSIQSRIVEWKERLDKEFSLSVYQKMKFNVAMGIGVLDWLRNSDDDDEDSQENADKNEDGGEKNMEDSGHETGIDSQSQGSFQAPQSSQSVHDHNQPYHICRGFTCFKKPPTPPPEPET
# Sequence of Cytochrome P450 2D6 (P10635 whole entry): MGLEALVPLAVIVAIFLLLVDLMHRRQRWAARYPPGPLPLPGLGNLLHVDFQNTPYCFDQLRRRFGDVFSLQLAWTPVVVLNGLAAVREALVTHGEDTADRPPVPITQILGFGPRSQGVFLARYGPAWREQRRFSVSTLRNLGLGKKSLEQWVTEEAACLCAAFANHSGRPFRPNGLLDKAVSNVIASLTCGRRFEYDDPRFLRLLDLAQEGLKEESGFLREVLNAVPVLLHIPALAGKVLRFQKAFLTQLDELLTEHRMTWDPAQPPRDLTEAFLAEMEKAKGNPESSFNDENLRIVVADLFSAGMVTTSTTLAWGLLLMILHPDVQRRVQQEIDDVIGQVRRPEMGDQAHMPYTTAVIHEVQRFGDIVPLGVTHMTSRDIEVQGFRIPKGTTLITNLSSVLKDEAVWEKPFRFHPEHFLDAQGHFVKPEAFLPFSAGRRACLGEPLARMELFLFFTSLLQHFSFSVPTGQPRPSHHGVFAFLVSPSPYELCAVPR
structure (smiles),measurement,setting,value
Oc1ccc(C2Nc3cccc4cccc(c34)N2)c(O)c1,AC50,[1],25.1 µM (inconclusive)
same,CC50,[2],> 40 µM (active)
COCCNC(=O)[C@H](C)/C=C/C(NC(=O)OCc1ccccc1)c1ccc(C(=O)OC)cc1 (stereo not given in full),AC50,[3],7.94 µM (inconclusive)
CN(C)c1ccc(/C=C2\CCCN=C2c2cccnc2)cc1,AC50,[3],10 µM (inconclusive)
COc1cccc(NC(=O)CN(C)CC(=O)NCc2ccco2)c1,AC50,[4],115 µM (active)
COC(=O)[C@@H]1C[C@@]2(O)[C@H](O)[C@H](O)[C@H](O)C[C@H]2N1Cc1c(F)cccc1Cl,AC50,[3],25.1 µM (inconclusive)
CCOC(=O)C(C)(C)N(Cc1ccccc1C)S(=O)(=O)c1ccc(Cl)c([N+](=O)[O-])c1,AC50,[4],29.8 µM (active)
COc1ccc(C2C(C(=O)c3ccco3)=C(O)C(=O)N2Cc2cccnc2)cc1OC (stereo not given),Ki,[5],> 66.7 µM (inactive)
O=C(Nc1ccc(-c2nc3cccnc3s2)cc1)C1CCCO1 (stereo not given),EC50,[6],11.3 µM (active)
same,AC50,[7],> 52 µM (inactive)
same,EC50,[8],4.58 µM (active)
same,AC50,[9],2.45 µM (active)
same,EC50,[10],4.56 µM (active)
same,EC50,[11],6.12 µM (active)
same,AC50,[12],38.4 µM (active)
same,AC50,[13],1.98 µM (active)
same,EC50,[14],6.36 µM (active)
same,EC50,[15],6.46 µM (inconclusive)
CCN(c1ccc(C)cc1C)S(=O)(=O)c1nnc(NC(=O)c2ccco2)s1,AC50,[4],60.2 µM (active)
same,EC50,[16],43.1 µM (active)
same,EC50,[17],17.5 µM (active)
same,EC50,[18],2.15 µM (active)
C=CCN(CC(O)c1cccc([N+](=O)[O-])c1)C(C)CCc1ccccc1 (stereo not given),EC50,[6],> 195 µM (not active)
same,EC50,[19],3.35 µM (active)
O=C(Nc1cc(Cl)ccc1O)c1cc2n(n1)C(C(F)(F)F)CC(c1ccc3c(c1)OCO3)N2 (stereo not given),Absolute IC50 (XBP1),[20],10 µM
CCOc1cc(C2C(C(=O)c3ccc(C)o3)=C(O)C(=O)N2CCc2ccccc2)ccc1O (stereo not given),Ki,[5],30.4 µM (inactive)
CCCCNCC1C(Oc2ccc(Cl)cc2)C(=O)N1c1ccccc1C (stereo not given),EC50,[19],4.22 µM (active)
Cc1nc2c(C#N)c(C)nn2c(O)c1Cc1ccccc1,Ki,[5],50 µM (inactive)
same,AC50,[21],25.1 µM (inconclusive)
Cc1ccc(C(=O)n2c(N)nc3ccccc32)cc1,AC50,[7],24.9 µM (active)
same,AC50,[22],> 52 µM (inactive)
same,CC50,[23],> 40 µM (active)
same,AC50,[9],1.43 µM (active)
same,AC50,[12],> 52 µM (inactive)
same,IC50,[24],6.64 µM (active)
same,AC50,[13],1.44 µM (active)
same,EC50,[16],115 µM (active)
same,EC50,[17],> 150 µM (not active)
same,EC50,[18],13.2 µM (active)
COc1ccc(CC(=O)N(Cc2cc3cc(OC)ccc3nc2O)C(C)C)cc1,EC50,[25],> 50 µM (active)
O=C(CCn1cccc1)Nc1ccc(OC(F)(F)F)cc1,EC50,[25],> 50 µM (active)
C1=Nc2ccccc2CN1c1ccccc1,EC50,[25],> 50 µM (active)
COc1ccc(C2=NCC(=O)N(CC(=O)NCc3ccco3)c3sc4c(c32)CCCC4)cc1OC,CC50,[2],> 40 µM (active)
O=C(O)CN(CC(=O)O)Cc1cc2c(-c3ccccc3C(=O)O)c3cc(CN(CC(=O)O)CC(=O)O)c(=O)cc-3oc2cc1O,AC50,[3],20 µM (inconclusive)
Cc1nnc(S)n1/N=C/c1c(O)ccc2ccccc12,IC50,[26],2.42 µM (active)
same,IC50,[27],> 100 µM (inactive)
COc1cc(/C=N/n2c(S)nnc2-c2[nH]nc3c2CCC3)cc(OC)c1O,IC50,[28],24 µM (active)
same,IC50,[26],1.81 µM (active)
same,AC50,[29],0.011 µM (active)
same,IC50,[27],> 100 µM (inactive)

# Source: ChEMBL document CHEMBL1201862, “PubChem BioAssay data set” (2004)
